≈ marks a conversion by molar mass, not a printed value.
conditions: buffer; pH 7.4; 200.0 µM

Row | SMILES | solubility kinetic [µg/mL]
1 | O=S(=O)(c1ccccc1)N1CCN(c2cccc(Cl)c2)CC1 | 3.8 (≈ 11.3 µM)
2 | CCCC(=O)Oc1ccc(C2NC(=O)c3ccccc3O2)cc1 (stereo unspecified) | < 0.7
3 | O=C1CCC(=O)N1Cc1c(Cl)cccc1Cl | 35.5 (≈ 138 µM)
4 | Cc1ccc(Cl)cc1NC(=O)C1CCCN(S(C)(=O)=O)C1 (stereo unspecified) | 5.8 (≈ 17.5 µM)
5 | CC(C)=CC(=O)OCc1csc(CC(=O)Nc2ccccc2C)n1 | > 51.7
6 | CCCCC(CCC(=O)Nc1cccc([N+](=O)[O-])c1)C(=O)O (stereo unspecified) | 43.7 (≈ 142 µM)
7 | COC(=O)c1cccc(NC(=O)CC2C(=O)NCCN2C(=O)Nc2cc(C)cc(C)c2)c1 (stereo unspecified) | 13.1 (≈ 29.9 µM)
8 | Cc1cc(C)n2nc(SCC(=O)NC3CCCCC3)nc2n1 | > 47.9
9 | CN(CC(=O)Nc1ccc(F)c(F)c1F)C(=O)C1COc2ccccc2O1 (stereo unspecified) | > 57
10 | CC1Oc2ccccc2N(CC(=O)NCc2ccc3c(c2)OCO3)C1=O (stereo unspecified) | 18.9 (≈ 53.3 µM)
11 | Cc1cccc(C(=O)NCC(=O)N2CCC2)c1 | > 34.8
12 | Cc1ccc(C(OCC(O)CN2CCCCC2)c2ccccc2)cc1 (stereo unspecified) | 40.2 (≈ 118 µM)
13 | COCC(=O)Nc1ccc2c(c1)OCC(=O)N2Cc1ccccc1F | 46.4 (≈ 135 µM)
14 | CCOc1ccc(NC(=O)CNC(=O)c2ccc(OC)cc2)cc1 | 4.1 (≈ 12.5 µM)
15 | NC(=O)c1ccc(NC(=O)c2cccc3c2OCCCO3)cc1 | 14.5 (≈ 46.4 µM)
16 | Cc1nc2c(oc3ccc(Cl)cc32)c(=O)[nH]1 | 11.9 (≈ 50.7 µM)
17 | O=C(Nc1csc([N+](=O)[O-])c1)Nc1c(Cl)cccc1Cl | 1.9 (≈ 5.72 µM)
18 | Cc1cccc(NC(=O)NCc2cccnc2)c1C | 35.6 (≈ 139 µM)
19 | Cc1nn(CC(=O)N2CCc3ccccc32)c(C)c1S(=O)(=O)NC(C)(C)C | > 58.6
20 | CCc1ccc(/C=C\C(=O)N2CCCC2)cc1 | 28.3 (≈ 123 µM)
21 | COC(=O)c1nccnc1C(=O)Nc1ccccc1N1CCOCC1 | > 51.4
22 | Cc1ccc(S(=O)(=O)N2CCN(C(=O)c3cccs3)CC2)cc1C | 44.4 (≈ 122 µM)

Row | SMILES | solubility kinetic [µg/mL]
23 | CCNC(=S)Nc1ccc2c(c1)oc1ccccc12 | 1.7 (≈ 6.29 µM)
24 | O=c1[nH]c2cccnc2n1-c1ccc([N+](=O)[O-])cc1 | 13.3 (≈ 51.9 µM)
25 | O=C(O)CCNC(=O)/C(=C\c1ccco1)NC(=O)c1ccco1 | > 47.7
26 | CCn1c(=O)c2cc(C(=O)NCCN(C)C)sc2c2ccccc21 | 51.5 (≈ 150 µM)
27 | O=C(CN1CCc2cc3c(cc2C1)OCCCO3)Nc1ccccc1 | 4.4 (≈ 13 µM)
28 | CC(C)(C)n1cnc2cc(NCc3ccccc3O)ccc21 | 34.5 (≈ 117 µM)
29 | CC(=O)Nc1ccc(CC#N)cc1 | > 26.1
30 | O=C(COc1ncnc2cc(Cl)ccc12)c1ccc2c(c1)OCCO2 | < 0.4
31 | CCC(C)NC(=O)c1ccc2c(c1)N(Cc1ccccc1)C(=O)CS2 (stereo unspecified) | 3.6 (≈ 10.2 µM)
32 | Cc1cc(NCc2ccc(F)cc2)nc2cc(Cl)ccc12 | 0.8 (≈ 2.66 µM)
33 | Cc1cc(C)nc(/N=c2/ssnc2Cl)c1 | 1.8 (≈ 6.98 µM)
34 | CN(Cc1ccccc1F)C(=O)c1sccc1-c1ccccc1 | 14 (≈ 43 µM)
35 | CCOC(=O)c1ccc(NC(=O)c2ccc[n+]([O-])c2)cc1 | > 42.9
36 | CCc1ccccc1Nc1ncnc2ccccc12.Cl | > 42.9
37 | C[C@@H]1CN(Cc2nc(-c3ccc(Cl)cc3)no2)C[C@H](C)O1 | 44 (≈ 143 µM)
38 | O=C1CCC(=O)N1c1ccccc1 | > 26.3
39 | Cc1ccc(S(=O)(=O)n2cccc2C)cc1 | 5.1 (≈ 21.7 µM)
40 | O=C(c1cccs1)N1CCN=C1SCc1cccc(F)c1 | < 0.3
41 | Cc1cccc(N=Cc2c(O)n(C)c(=O)n(C)c2=O)c1 | 10 (≈ 36.6 µM)
42 | Cc1ccccc1NC(=O)CN1CCN(C(=O)c2ccco2)CC1 | > 49.1
43 | CCOc1cccc2cc(C(=O)N3CCOCC3)c(=O)oc12 | > 45.5
44 | CC1=C(C(=O)c2ccccc2)C(c2ccc(O)cc2)NC(=S)N1 (stereo unspecified) | 21.8 (≈ 67.2 µM)

Row | SMILES | solubility kinetic [µg/mL]
45 | COc1cccc(NC(=O)CN2CCSc3ccccc32)c1 | 25.5 (≈ 81.1 µM)
46 | O=C(CCC(=O)N1CCN(S(=O)(=O)c2ccccc2)CC1)c1ccc(Br)cc1 | 6.9 (≈ 14.8 µM)
47 | CCOc1cc(-c2nc3ccccc3s2)ccc1O | 1.1 (≈ 4.05 µM)
48 | Cc1ccc(C)c(NC(=O)CN(C)C(=O)C2CCCC2)c1 | > 43.3
49 | CCOc1ccccc1NC(=O)Cn1c(=O)sc2ccccc21 | 1.2 (≈ 3.65 µM)
50 | O=C(COC(=O)c1ccc(O)cc1)Nc1ccc(S(=O)(=O)N2CCCC2)cc1 | > 60.7
51 | COc1cccc(/C=C/C(=O)OCC(=O)NC2CC2)c1OC | 24 (≈ 78.6 µM)
52 | O=C1NC2(CCCCC2)C(=O)N1Cc1cc(=O)n2ccsc2n1 | 44.7 (≈ 134 µM)
53 | COC(=O)c1ccc(COc2cccnc2[N+](=O)[O-])cc1 | 4.2 (≈ 14.6 µM)
54 | COC(=O)c1cccc(NC(=O)Nc2ccc(Cl)cc2)c1 | < 0.3
55 | COc1cccc(NC(=O)CSc2nc(C3CC3)nc3ccccc23)c1 | < 0.3
56 | CC1CN(c2ccc([N+](=O)[O-])nc2)CC(C)O1 (stereo unspecified) | > 35.6
57 | Brc1ccc(-c2nc(-c3ccncc3)no2)cc1 | < 0.2
58 | CCCOc1ccc(C(=O)OCCN2CCCCC2)c(O)c1.Cl | 49.8
59 | Cc1ccccc1-c1nnc(SCC(=O)Nc2cccnc2Cl)o1 | > 54.1
60 | CC(C)(C)c1cc2ncnc(N3CCCCC3)c2s1 | 10.5 (≈ 38.1 µM)
61 | COc1ccc(C(C)NC(=O)CCc2ccccc2)cc1 (stereo unspecified) | 40.8 (≈ 144 µM)
62 | Nc1ccc(C(=O)OCC(=O)Nc2cccc(S(=O)(=O)NC3=NCCCCC3)c2)cc1[N+](=O)[O-] | 4.7 (≈ 9.6 µM)
63 | CC(c1nccs1)N(C)c1nc2nonc2nc1NC1CC1 (stereo unspecified) | 9.6 (≈ 30.2 µM)
64 | CCOC(=O)c1ccc(NC(=O)CNC(=O)c2ccco2)cc1 | 10.2 (≈ 32.2 µM)
65 | CCC1CCCCN1C(=O)CSc1nc(N)cc(=O)[nH]1 (stereo unspecified) | 42.2 (≈ 142 µM)
66 | Nc1c(Cl)ncnc1NCc1ccccc1 | 32.6 (≈ 139 µM)

Row | SMILES | solubility kinetic [µg/mL]
67 | CC1CN(C(=S)Nc2ccccc2)CC(C)O1 (stereo unspecified) | 35.4 (≈ 141 µM)
68 | COc1ccc(C2C(C#N)=C(N)Oc3cc(N)ccc32)cc1 (stereo unspecified) | 27.4 (≈ 93.4 µM)
69 | CC1C(=O)Nc2ccccc2N1C(=O)c1c(F)cccc1F (stereo unspecified) | > 45.3
70 | CC(Nc1cccc(F)c1)C(=O)Nc1ccc(S(N)(=O)=O)cc1 (stereo unspecified) | > 50.6
71 | COc1cc(S(=O)(=O)NCc2ccncc2)c(OC)cc1C | > 48.4
72 | Cc1c(Cl)cccc1NC(=O)NCc1ccc(C)n1C | 5.3 (≈ 18.2 µM)
73 | CCN(CC(=O)Nc1ccc(C)c(F)c1)CC(=O)NC(C)C | > 46.4
74 | COc1ccc(CCNCc2cccn2C)cc1.Cl | 40.5
75 | O=C(CSc1ccc(F)cc1)Nc1ccc(C2SCCS2)cc1 | < 0.8
76 | ClCC1=Nc2ccccc2Cc2ccccc21 | 4.8 (≈ 19.9 µM)
77 | O=C(CCNC(=O)c1ccccc1)OCC(=O)c1ccccc1 | > 46.7
78 | O=C(CNC(=O)Cc1ccccc1)NCc1cccs1 | 41.9 (≈ 145 µM)
79 | O=C(CCCc1ccccc1)Nc1ccccc1C(F)(F)F | 5.1 (≈ 16.6 µM)
80 | COc1ccc2[nH]c(C(=O)NCCN3CCCCC3)cc2c1 | 39.7 (≈ 132 µM)
81 | O=C(Nc1ccc(OC(F)(F)F)cc1)c1ccc2nc[nH]c2c1 | 14.9 (≈ 46.4 µM)
82 | O=C1CC(=O)N(c2ccccc2)C(=O)N1c1ccccc1 | > 42
83 | O=C(Nc1cnccc1C(F)(F)F)NC1CCCCC1 | 43.1 (≈ 150 µM)
84 | CC(=O)C(Cc1ccccc1)NC(=O)CN1CCc2ccccc2C1 (stereo unspecified) | > 50.5
85 | COC(=O)Cn1c2ccccc2c2nc3ccccc3nc21 | 0.2 (≈ 0.687 µM)
86 | COc1ccc2oc(=O)c(N3C(=O)c4ccccc4C3=O)cc2c1 | 1.2 (≈ 3.73 µM)
